Laboratory results as given in PubChem BioAssay (NCI).
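Cultured in 96-well plates, cells were exposed to test compound for 48 hours across five concentrations. The concentration for full growth arrest is given as TGI.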

Tests used:
Assay in all cases: NCI-60 cell line screen, 48 h
786-0 renal = tested on: 786-0 renal
A498 renal = tested on: A498 renal
A549 NSCLC = tested on: A549 NSCLC
ACHN renal = tested on: ACHN renal
CAKI-1 renal = tested on: CAKI-1 renal
CCRF-CEM leukemia = tested on: CCRF-CEM leukemia
DLD-1 colon = tested on: DLD-1 colon
EKVX NSCLC = tested on: EKVX NSCLC
HCC-2998 colon = tested on: HCC-2998 colon
HCT-116 colon = tested on: HCT-116 colon
HCT-15 colon = tested on: HCT-15 colon
HL-60(TB) leukemia = tested on: HL-60(TB) leukemia
HOP-18 NSCLC = tested on: HOP-18 NSCLC
HOP-62 NSCLC = tested on: HOP-62 NSCLC
HOP-92 NSCLC = tested on: HOP-92 NSCLC
HT29 colon = tested on: HT29 colon
IGROV1 ovarian = tested on: IGROV1 ovarian
K-562 leukemia = tested on: K-562 leukemia
KM12 colon = tested on: KM12 colon
KM20L2 colon = tested on: KM20L2 colon
LOX IMVI melanoma = tested on: LOX IMVI melanoma
LXFL 529 NSCLC = tested on: LXFL 529 NSCLC
M14 melanoma = tested on: M14 melanoma
M19-MEL melanoma = tested on: M19-MEL melanoma
MALME-3M melanoma = tested on: MALME-3M melanoma
MOLT-4 leukemia = tested on: MOLT-4 leukemia
NCI-H226 lung = tested on: NCI-H226 lung
NCI-H460 lung = tested on: NCI-H460 lung
NCI-H522 lung = tested on: NCI-H522 lung
OVCAR-3 ovarian = tested on: OVCAR-3 ovarian
OVCAR-4 ovarian = tested on: OVCAR-4 ovarian
OVCAR-8 ovarian = tested on: OVCAR-8 ovarian
RXF-631 renal = tested on: RXF-631 renal
SF-268 CNS = tested on: SF-268 CNS
SF-295 CNS = tested on: SF-295 CNS
SF-539 CNS = tested on: SF-539 CNS
SK-MEL-2 melanoma = tested on: SK-MEL-2 melanoma
SK-MEL-28 melanoma = tested on: SK-MEL-28 melanoma
SK-OV-3 ovarian = tested on: SK-OV-3 ovarian
SN12C renal = tested on: SN12C renal
SNB-19 CNS = tested on: SNB-19 CNS
SNB-75 CNS = tested on: SNB-75 CNS
SR leukemia = tested on: SR leukemia
SW-620 colon = tested on: SW-620 colon
TK-10 renal = tested on: TK-10 renal
UACC-257 melanoma = tested on: UACC-257 melanoma
UACC-62 melanoma = tested on: UACC-62 melanoma
UO-31 renal = tested on: UO-31 renal
COLO 205 colon = tested on: COLO 205 colon
DMS 114 small cell lung = tested on: DMS 114 small cell lung
NCI-H23 lung = tested on: NCI-H23 lung
OVCAR-5 ovarian = tested on: OVCAR-5 ovarian
RPMI-8226 leukemia = tested on: RPMI-8226 leukemia
SK-MEL-5 melanoma = tested on: SK-MEL-5 melanoma
SNB-78 CNS = tested on: SNB-78 CNS
U251 CNS = tested on: U251 CNS

In the case of Cc1ccc(N=Nc2c(C)nn(-c3ccccc3)c2-c2ccccc2)c(Br)c1, the TGI (786-0 renal) is reported as > 100 µM, the TGI (A498 renal) is reported as > 100 µM and the TGI (A549 NSCLC) is reported as > 100 µM. For the same compound, the TGI (ACHN renal) was > 100 µM, the TGI (CAKI-1 renal) was > 100 µM and the TGI (CCRF-CEM leukemia) was > 100 µM. For the same compound, the TGI (DLD-1 colon) was > 100 µM, the TGI (EKVX NSCLC) was > 100 µM and the TGI (HCC-2998 colon) was > 100 µM. For the same compound, the TGI (HCT-116 colon) was > 100 µM, the TGI (HCT-15 colon) was > 100 µM and the TGI (HL-60(TB) leukemia) was > 100 µM. The TGI (HOP-18 NSCLC) was > 100 µM, the TGI (HOP-62 NSCLC) was > 100 µM and the TGI (HOP-92 NSCLC) was > 100 µM. For the same compound, the TGI (HT29 colon) was > 100 µM, the TGI (IGROV1 ovarian) was > 100 µM and the TGI (K-562 leukemia) was > 100 µM. For the same compound, the TGI (KM12 colon) was > 100 µM, the TGI (KM20L2 colon) was > 100 µM and the TGI (LOX IMVI melanoma) was > 100 µM. For the same compound, the TGI (LXFL 529 NSCLC) was > 100 µM, the TGI (M14 melanoma) was > 100 µM and the TGI (M19-MEL melanoma) was > 100 µM. For the same compound, the TGI (MALME-3M melanoma) was > 100 µM, the TGI (MOLT-4 leukemia) was > 100 µM and the TGI (NCI-H226 lung) was > 100 µM. The TGI (NCI-H460 lung) was > 100 µM, the TGI (NCI-H522 lung) was > 100 µM and the TGI (OVCAR-3 ovarian) was > 100 µM. The TGI (OVCAR-4 ovarian) was > 100 µM, the TGI (OVCAR-8 ovarian) was > 100 µM and the TGI (RXF-631 renal) was > 100 µM. For the same compound, the TGI (SF-268 CNS) was > 100 µM, the TGI (SF-295 CNS) was > 100 µM and the TGI (SF-539 CNS) was > 100 µM. The TGI (SK-MEL-2 melanoma) was > 100 µM, the TGI (SK-MEL-28 melanoma) was > 100 µM and the TGI (SK-OV-3 ovarian) was > 100 µM. The TGI (SN12C renal) was > 100 µM, the TGI (SNB-19 CNS) was > 100 µM and the TGI (SNB-75 CNS) was > 100 µM. The TGI (SR leukemia) was > 100 µM, the TGI (SW-620 colon) was > 100 µM and the TGI (TK-10 renal) was > 100 µM. The TGI (UACC-257 melanoma) was > 100 µM, the TGI (UACC-62 melanoma) was > 100 µM and the TGI (UO-31 renal) was > 100 µM.

With COc1ccc(N2C(=O)/C(=C/c3ccc(N(CCC#N)CCC#N)cc3C)N=C2/C=C\c2ccccc2)cc1 the TGI (786-0 renal) was > 100 µM, the TGI (A549 NSCLC) was > 100 µM and the TGI (ACHN renal) was > 100 µM. The TGI (CAKI-1 renal) was > 100 µM, the TGI (CCRF-CEM leukemia) was > 100 µM and the TGI (COLO 205 colon) was 92 µM. For the same compound, the TGI (DLD-1 colon) was > 100 µM, the TGI (DMS 114 small cell lung) was > 100 µM and the TGI (HCT-116 colon) was > 100 µM. The TGI (HCT-15 colon) was > 100 µM, the TGI (HL-60(TB) leukemia) was > 100 µM and the TGI (HOP-18 NSCLC) was > 100 µM. For the same compound, the TGI (HOP-62 NSCLC) was 69.6 µM, the TGI (HOP-92 NSCLC) was > 100 µM and the TGI (HT29 colon) was > 100 µM. For the same compound, the TGI (IGROV1 ovarian) was > 100 µM, the TGI (K-562 leukemia) was > 100 µM and the TGI (KM12 colon) was > 100 µM. For the same compound, the TGI (KM20L2 colon) was 40 µM, the TGI (LOX IMVI melanoma) was > 100 µM and the TGI (LXFL 529 NSCLC) was > 100 µM. The TGI (M14 melanoma) was > 100 µM, the TGI (M19-MEL melanoma) was > 100 µM and the TGI (MALME-3M melanoma) was > 100 µM. For the same compound, the TGI (MOLT-4 leukemia) was > 100 µM, the TGI (NCI-H226 lung) was > 100 µM and the TGI (NCI-H23 lung) was > 100 µM. The TGI (NCI-H460 lung) was > 100 µM, the TGI (NCI-H522 lung) was > 100 µM and the TGI (OVCAR-3 ovarian) was > 100 µM. For the same compound, the TGI (OVCAR-4 ovarian) was > 100 µM, the TGI (OVCAR-5 ovarian) was > 100 µM and the TGI (OVCAR-8 ovarian) was > 100 µM. The TGI (RPMI-8226 leukemia) was > 100 µM, the TGI (RXF-631 renal) was > 100 µM and the TGI (SF-268 CNS) was > 100 µM. For the same compound, the TGI (SF-295 CNS) was > 100 µM, the TGI (SF-539 CNS) was 56.9 µM and the TGI (SK-MEL-2 melanoma) was > 100 µM. For the same compound, the TGI (SK-MEL-28 melanoma) was > 100 µM, the TGI (SK-MEL-5 melanoma) was > 100 µM and the TGI (SK-OV-3 ovarian) was > 100 µM. The TGI (SN12C renal) was > 100 µM, the TGI (SNB-19 CNS) was > 100 µM and the TGI (SNB-75 CNS) was > 100 µM. For the same compound, the TGI (SNB-78 CNS) was > 100 µM, the TGI (SR leukemia) was > 100 µM and the TGI (SW-620 colon) was > 100 µM. The TGI (TK-10 renal) was > 100 µM, the TGI (U251 CNS) was > 100 µM and the TGI (UACC-257 melanoma) was > 100 µM. It also gave a TGI (UACC-62 melanoma) of 60.7 µM and a TGI (UO-31 renal) of 75 µM.
